In patent US20060134124A1, “Immunosuppression” (ML Laboratories PLC, priority 1998, published 2006):

Legend:
[1] = tested on: native porcine B7-2 molecule expressed on the surface of porcine B7-2 transfected P815 cells; assay: Flow cytometry of immunised-mouse sera on poB7-2 transfected P815 cells; format: binding; conditions: for recognition (staining) of porcine B7-2 transfected P815 cells by sera: sera of mice immunised with single peptide, FIGS. 17a and 17b
Description: (II) Transfected P815 cells are crucial reagents for the detection of porcine anti-B7-2 antibody in the sera of immunised mice which have undergone the chimeric peptide immunisation regimen. Flow cytometric analysis with control or poB7-2-transfected P815 cells, reflects the specificity of sera for B7-2.
(§1) Peptide ELISAs are used to screen for the presence of anti-peptide antibody in the sera. Peptides are coated to plates by virtue of aldehyde linkages to allow free access of Ab to the peptide (78), Plates are coated with individual peptides or the ova control peptide to enable the identification of specific peptides of interest. To detect reactivity of sera with the native B7-2 molecule expressed on the surface of PoB7-2 transfected P815 cells, flow cytometry is performed following surface staining. Having identified CS peptide of interest (peptide ELISA positive and recognising native B7-2) the sera is used to inhibit in vitro T cell proliferative responses. This determines whether the antibody is a blocking antibody.
(§2) Immunisations involved two groups of mice, one received a pool of all nine B7-2 peptides, and one receiving ova control peptide. The harvested sera were screened by peptide ELISA (FIG. 14a or 14b) which enabled the identification of peptides of interest. […] Peptide 4 and 6 were selected as candidate peptides and used in subsequent immunisation protocol. […] Similar protocols will be followed with peptide 2.

T cell proliferation = T cell proliferation response to whole ovalbumin or OVA 323-339 peptide after immunisation with whole ovalbumin; format: in vivo, C57BL-6 mice; conditions: following immunisation with whole ovalbumin; FIG. 13
Description: FIG. 13 represents a comparison of T cell proliferation response to whole ovalbumen or the ovalbumen peptide Ova323-339;
The peptide sequences and amino acid positions for peptides 1-10 relate to the position of the B7-2 peptide sequence within porcine B7-2. The amino acid position for the ova sequence is only indicated for the Ova peptide. A 17 amino acid peptide from chicken egg albumin (ovalbumin) was selected as the T cell epitope, OVA323-339 (ISQAVHAAHAEINEAGR). This epitope was selected on the basis of published reports for the generation of a H-2^b restricted T cell response (76, 77). […] Peptides were generated on a peptide synthesiser (Genosys) and crude peptides were purified by HPLC to greater than 70% purity.

porcine B7-2 peptides = assay: Peptide ELISA of sera from mice immunised with OVA-B7-2 chimeric peptides; format: in vivo, C57BL-6 mice; conditions: for level of peptide-specific IgG in the sera of immunised mice: immunisation with peptide 4 or 6, FIGS. 15a and 15b; for binding of antisera to B7 peptide versus ova control by peptide ELISA: sera of mice that received a pool of all nine B7-2 peptides, FIG. 14a or 14b
Description: C57BL-6 mice are immunised with whole ovalbumin in CFA, followed by either control peptide (OVA peptide) or CS peptides (OVA-B7-2 constructs) for three weekly immunisations. Blood is collected following sacrifice and sera prepared using a standard technique. Presence of specific mouse anti-porcine B7-2 IgG and/or IgM Ab is detected by one of two strategies.
as §1, §2

[2] = tested on: direct mouse anti porcine T cell responses; assay: Inhibition of in vitro T cell proliferative responses by peptide sera; format: cell-based; conditions: FIG. 15b
Method: as §1

murine CD86 = target: T1, murine CD86 (Mus musculus, UniProt P42082); assay: Inhibition of costimulation by murine CD86 by peptide sera; format: cell-based; conditions: FIG. 15b
T1 sequence (P42082 24-309): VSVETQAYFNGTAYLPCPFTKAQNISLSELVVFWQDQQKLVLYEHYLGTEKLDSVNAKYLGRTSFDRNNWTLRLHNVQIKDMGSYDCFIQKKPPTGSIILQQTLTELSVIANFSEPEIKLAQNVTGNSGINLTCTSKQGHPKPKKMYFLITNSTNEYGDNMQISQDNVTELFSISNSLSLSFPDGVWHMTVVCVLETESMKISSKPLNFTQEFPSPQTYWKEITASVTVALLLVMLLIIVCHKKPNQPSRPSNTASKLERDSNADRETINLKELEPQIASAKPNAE

With “ISQAVHAAHAEINEAGR [Ova Peptide, control peptide, reference compound]” the “recognition (staining) of porcine B7-2 transfected P815 cells by sera” value (from here on “recognition (staining)”) [1] was “do not stain”, the “staining of untransfected control P815 cells by sera” value [1] was “do not stain” and the “proliferative response of C57BL-6 mice (H-2b haplotype)” value (T cell proliferation) was “mount a proliferative response”.

In the case of “ISQAVHAAHAEINEAGRCSSTQGYPEPQR [Peptide 6]”, the “level of peptide-specific IgG in the sera of immunised mice” value (porcine B7-2 peptides) is reported as “significant level of IgG”, the “binding of antisera to B7 peptide versus ova control by peptide ELISA” value (porcine B7-2 peptides) is reported as “preferential binding to B7 peptide than to ova control” and the “recognition (staining)” value [1] is reported as “specifically recognise the native porcine B7-2 molecule”. The “staining of untransfected control P815 cells by sera” value [1] was “do not stain”, the “inhibition of direct mouse anti porcine T cell responses by sera” value [2] was “inhibition of direct mouse anti porcine T cell responses” and the “inhibition of costimulation by murine CD86 by sera” value (murine CD86) was “no inhibition”.

For ISQAVHAAHAEINEAGRGLVPIHQMS [Peptide 4], the “level of peptide-specific IgG in the sera of immunised mice” value (porcine B7-2 peptides) was “significant level of IgG”, the “specificity of the sera for the peptide versus ova control” value (porcine B7-2 peptides; peptide ELISA, FIG. 16) was “specificity of the sera for peptide 4 and not to ova control” and the “binding of antisera to B7 peptide versus ova control by peptide ELISA” value (porcine B7-2 peptides) was “preferential binding to B7 peptide than to ova control”. For the same substance, the “recognition (staining)” value [1] was “specifically recognise the native porcine B7-2 molecule”, the “staining of untransfected control P815 cells by sera” value [1] was “do not stain” and the “inhibition of direct mouse anti porcine T cell responses by sera” value [2] was “inhibition of direct mouse anti porcine T cell responses”. The “inhibition of costimulation by murine CD86 by sera” value (murine CD86) was “no inhibition”.

In the case of ISQAVHAAHAEINEAGRLPCHFTNSQ [Peptide 2], the “binding of antisera to B7 peptide versus ova control by peptide ELISA” value (porcine B7-2 peptides) is reported as “preferential binding to B7 peptide than to ova control”.

For “ovalbumin [chicken egg albumin used whole for priming immunisation]”, the “proliferative response of C57BL-6 mice (H-2b haplotype)” value (T cell proliferation) was “mount a proliferative response”.
